# How the values were obtained:
# common mallow (MALNE) = experiment: Pre-emergence orchard floor weeds, greenhouse study; type: in vivo, Malva neglecta; conditions: 28 Days After Application
# Procedure: (§1) Greenhouse studies were conducted by seeding species in a loam soil and applying the herbicides to the soil surface using a Cornwall 5 milliliter glass syringe fitted with a TeeJet TN-3 nozzle on an area basis Immediately following herbicide application the pots were irrigated over the top to move the herbicides into the seeding zone. Pots were kept well irrigated throughout the trial. A percent visual weed control assessment was taken 4 weeks after application. Control was determined visually by comparing treated and untreated pots and scored on a 0 to 100 percent scale where 0 corresponds to no control and 100 corresponds to complete kill, or no emergence.
# [1] = tested on: broadleaf plantain (PLAMA); experiment: Granule carrier comparison, pre-emergence greenhouse study; type: in vivo, Plantago major L.; conditions: pre-emergent greenhouse
# Procedure: (§2) Greenhouse and field studies evaluated the effect of two granule carriers and two particles sizes on the postemergent broadleaf activity of penoxsulam. The two carriers were a 46-0-0 and 28-4-12 fertilizer blend and the particle sizes averaged 0.75 mm and 2.15 mm.
# (§3) Greenhouse studies were applied both post and pre-emergence to broadleaf weeds and sedge reared from seed or nutlet in 12.7″ (32.25 cm) by 8.8″ (22.35 cm) flats of a loam soil. Particle size and carrier were evaluated post emergence, carrier comparisons with the smaller particle size of 0.75 was evaluated pre-emergence. Stage of growth of species at post emergence application: PLAMA and TAROF in the 3 to 5 leaf stage, TRFRE in the 3rd tri-foliate stage and CYPES in the 3 to 4 leaf stage. Post emergence trial design was a replicated block, one species per flat, 3 replicate flats per treatment. Granule treatments were uniformly applied to individual flats on an area basis using a common hand-shaker method. Post emergence applications were made to the flat covering both soil and misted foliage. Trial was sub-irrigated daily, and watered over the top 1 time per week starting 7 days after application to simulate a natural rainfall event. Active weed growth was maintained throughout the study period. Weed control of each species in the post emergence study was assessed at 2, 3 and 4 weeks after treatment. Pre-emergence trial design was 2 species per flat, 4 replicate flats, block design. Pre-emergence applications were made to the soil surface using a common hand shaker method on an area basis. Overhead irrigation was maintained throughout the trial. Weed control of each species in the pre-emergence study was assessed at 2, 3, 4 and 5 weeks after application. Control was determined visually by comparing treated and untreated flats and scored on a 0 to 100 percent scale where 0 corresponds to no control and 100 corresponds to complete kill.
# white clover (TRFRE) = experiment: as above; type: in vivo, Trifolium repens L.; conditions: pre-emergent greenhouse
# Procedure: as §2, §3
# junglerice (ECHCO) = experiment: Pre-emergence weed nursery field study; type: in vivo, Echinochloa colonum; conditions: weed nursery in the field, 27 Days After Application
# Procedure: Field studies were conducted in a non-fumigated weed nursery trial. Weed species were planted in single strips with a row planter at 36 centimeter spacing. Plot size was 3.05×9.2 meters, 4 replicate plots per treatment. Weed species were seeded at appropriate depths and later the same day pre-emergent applications were made to the soil surface. Liquid applications were made using a backpack sprayer calibrated to deliver 187 liters per hectare (L/ha). Applications were made in Fresno, Calif. in June. Sprinkler irrigation was applied at regular intervals throughout study period. Control of each weed species in the study site was made 4 weeks after treatment. Control was determined visually by comparing treated and untreated weeds and scored on a 0 to 100 percent scale where 0 corresponds to no control and 100 corresponds to complete kill or no emergence.
# dandelion (TAROF) = experiment: Granule carrier comparison, pre-emergence greenhouse study; type: in vivo, Taraxacum officinale; conditions: pre-emergent greenhouse
# Procedure: as §2, §3
# [2] = tested on: broadleaf weeds and sedges; experiment: Weed control in turfgrass and vine and orchard floors (general statement); type: in vivo; conditions: TRFRE, PLALA, TAROF, PLAMA, GLEHE, LESST, HYDSS, DIQVI, BELPE, CYPES
# common groundsel (SENVU) = experiment: Pre-emergence orchard floor weeds, greenhouse study; type: in vivo, Senecio vulgaris; conditions: 28 Days After Application
# Procedure: as §1
# wild mustard (SINAR) = experiment: as above; type: in vivo, Sinapsis arvense; conditions: 28 Days After Application
# Procedure: as §1
# [3] = tested on: Hydrocotyle species (HYDSS); experiment: Post emergent synergy field study, penoxsulam + dicamba granule; type: in vivo; conditions: average of 2 studies 4 weeks after application
# Procedure: Field and greenhouse studies were conducted to determine if there may be any synergistic response when penoxsulam is combined with other herbicides for post emergence broadleaf or sedge control. Field studies were conducted in established turfgrass sites containing a natural population of target broadleaf weeds. Replicated trials, containing a minimum of three replications and having individual plots ranging in size from 25 to 50 ft. sq (2.3 to 4.6 square meters), were initiated in the late spring when turf and weeds were actively growing. Granule treatments were uniformly applied to individual plots using a common hand-shaker method. Applications were made in the early morning when dew was present. Natural rainfall and supplemental irrigation were used to maintain healthy turf and active weed growth throughout the study period. Control of each weed species in the study site was made at 2, 4 and 8 weeks after treatment. Control was determined visually by comparing treated and untreated weeds and scored on a 0 to 100 percent scale where 0 corresponds to no control and 100 corresponds to complete kill.
# Component A was penoxsulam at 0.02 or 0.04 lb ai/A. Component B was dicamba at 0.1 lb ai/A. Individual products and mixture were applied on a 30-3-4 granule fertilizer formulated to deliver 116 pounds fertilizer per acre (129 kg per hectare). Loadings for the individual component on the fertilizer were: • Penoxsulam 22.4 gai/Ha (0.02 lb ai/A)=0.017% • Penoxsulam 44.9 gai/Ha (0.04 lb ai/A)=0.034% • Dicamba 112 gae/Ha (0.1 lb ai/A)=0.086%
# For combinations the same loadings were applied to the same granule carrier and applied as a single product to test area.
# [4] = carrier 28-4-12, particle size 0.75 mm, 5.6 gai/Ha
# [5] = carrier 28-4-12, particle size 0.75 mm, 11.2 gai/Ha
# [6] = carrier 28-4-12, particle size 0.75 mm, 22.4 gai/Ha
# [7] = carrier 46-0-0, particle size 0.75 mm, 5.6 gai/Ha
# [8] = carrier 46-0-0, particle size 0.75 mm, 11.2 gai/Ha
# [9] = carrier 46-0-0, particle size 0.75 mm, 22.4 gai/Ha
structure (smiles),measurement,setting,value
"COc1cnc(OC)n2nc(NS(=O)(=O)c3c(OCC(F)F)cccc3C(F)(F)F)nc12 [Penoxsulam, 2-(2,2-difluoroethoxy)-N-(5,8-dimethoxy[1,2,4]triazolo[1,5-c]-pyrimidin-2-yl)-6-(trifluoromethyl)benzenesulfonamide]",Pre-emergent Percent Mean Control,common mallow (MALNE); 8.8 gai/Ha,60%
same,Pre-emergent Percent Mean Control,common mallow (MALNE); 17.5 gai/Ha,92%
same,Pre-emergent Percent Mean Control,common mallow (MALNE); 35 gai/Ha,95%
same,Pre-emergent Percent Mean Control,common mallow (MALNE); 70 gai/Ha,98%
same,Percent Weed Control 35 DAA,[1]; [4],72%
same,Percent Weed Control 35 DAA,[1]; [5],82%
same,Percent Weed Control 35 DAA,[1]; [6],100%
same,Percent Weed Control 35 DAA,[1]; [7],76%
same,Percent Weed Control 35 DAA,[1]; [8],87%
same,Percent Weed Control 35 DAA,[1]; [9],94%
same,Percent Weed Control 35 DAA,white clover (TRFRE); [4],80%
same,Percent Weed Control 35 DAA,white clover (TRFRE); [5],98%
same,Percent Weed Control 35 DAA,white clover (TRFRE); [6],99%
same,Percent Weed Control 35 DAA,white clover (TRFRE); [7],55%
same,Percent Weed Control 35 DAA,white clover (TRFRE); [8],75%
same,Percent Weed Control 35 DAA,white clover (TRFRE); [9],98%
same,Pre-emergent Percent Mean Control,junglerice (ECHCO); 8.8 gai/Ha,88%
same,Pre-emergent Percent Mean Control,junglerice (ECHCO); 17.5 gai/Ha,94%
same,Pre-emergent Percent Mean Control,junglerice (ECHCO); 35 gai/Ha,100%
same,Pre-emergent Percent Mean Control,junglerice (ECHCO); 70 gai/Ha,100%
same,Percent Weed Control 35 DAA,dandelion (TAROF); [4],71%
same,Percent Weed Control 35 DAA,dandelion (TAROF); [5],96%
same,Percent Weed Control 35 DAA,dandelion (TAROF); [6],98%
same,Percent Weed Control 35 DAA,dandelion (TAROF); [7],77%
same,Percent Weed Control 35 DAA,dandelion (TAROF); [8],96%
same,Percent Weed Control 35 DAA,dandelion (TAROF); [9],96%
same,effectiveness against most important weeds,[2],particularly effective
same,Pre-emergent Percent Mean Control,common groundsel (SENVU); 8.8 gai/Ha,95%
same,Pre-emergent Percent Mean Control,common groundsel (SENVU); 17.5 gai/Ha,100%
same,Pre-emergent Percent Mean Control,common groundsel (SENVU); 35 gai/Ha,100%
same,Pre-emergent Percent Mean Control,common groundsel (SENVU); 70 gai/Ha,100%
same,Pre-emergent Percent Mean Control,wild mustard (SINAR); 8.8 gai/Ha,79%
same,Pre-emergent Percent Mean Control,wild mustard (SINAR); 17.5 gai/Ha,91%
same,Pre-emergent Percent Mean Control,wild mustard (SINAR); 35 gai/Ha,98%
same,Pre-emergent Percent Mean Control,wild mustard (SINAR); 70 gai/Ha,98%
same,% Control Component A,[3]; 22.4 gai/Ha on 30-3-4 granule fertilizer,37%
same,% Control Component A,[3]; 44.9 gai/Ha on 30-3-4 granule fertilizer,59%

# Source: patent publication US8455397B2, “Penoxsulam as a turfgrass, vineyard and orchard floor herbicide” (Dow AgroSciences, LLC, priority 2005, dated 2013)
